# Values of other authors, collected in patent US10987324B2, “Methods and compositions for the treatment of seizure-related disorders” (Adamas Pharmaceuticals, Inc., priority 2015, dated 2021).
# Where two headings read alike, the source gives them in different places.
# Columns and labels:
# [1] = cited from earlier work
# [2] = cited from earlier work; remark: listed apart in the source
smiles,measurement,setting,value
"C=CC(N)CCC(=O)O (racemic) [vigabatrin, (RS)-4-aminohex-5-enoic acid]",Cmax,[1]; at steady state,61000 ng/mL
same,T1/2,[1]; at steady state,7.5 h
same,elimination / plasma / pharmacokinetic half-life,[1]; human,about 10 hours
same,Tmax,"[1]; oral dosing, human",approximately 1 hours
"NC(=O)N1c2ccccc2CC(O)c2ccccc21 (stereo not shown) [MDH, 10-monohydroxy metabolite]",elimination / plasma / pharmacokinetic half-life,[1]; human,9 h
CC(=O)N[C@H](CO)C(=O)NCc1ccccc1 [O-desmethyl metabolite],reduction of concentrations and amount excreted into urine,[1]; CYP2C19 poor metabolizers compared to extensive metabolizers,about 70%
same,elimination / plasma / pharmacokinetic half-life,[1]; human,15 to 23 h
same,Tmax,"[1]; oral dosing, human",0.5 to 12 h
CCCC(CCC)C(=O)O [divalproex sodium],elimination / plasma / pharmacokinetic half-life,[1]; human,about 15 hours
"CC[C@@H](C(N)=O)N1CCCC1=O [levetiracetam, (S)-alpha-ethyl-2-oxo-pyrrolidine acetamide]",patients reporting somnolence,"[2]; 4000 mg daily, untitrated study",Approximately 45%
same,patients with somnolence,[2]; compared to 8% with placebo,14.8%
same,Tmax,[1]; fasted subjects,approximately one
same,elimination / plasma / pharmacokinetic half-life,[1]; human,about 7 hours
same,elimination / plasma / pharmacokinetic half-life,"[1]; human, listed as Levetiracetam",6 to 8 h
same,AUC0-24,[1]; in vivo,300 to 350 µg·h/mL
same,renal excretion rate,[1]; mostly unmetabolized form,0.6 mL/min/kg
"NC(=O)N1c2ccccc2CC(=O)c2ccccc21 [oxcarbazepine, 10,11-dihydro-10-oxo-5H-dibenz(b,f)azepine-5-carboxamide]",AUC0-24,[1]; 600 mg IR BID,16.8 µg·h/mL
same,Cmax,[1]; 600 mg IR BID,2720 ng/mL
same,elimination / plasma / pharmacokinetic half-life,[1]; human,about 20 hours
same,elimination / plasma / pharmacokinetic half-life,"[1]; human, listed as Oxcarbazepine",approximately 2 hours
same,Tmax,"[1]; oral dosing, human",approximately 3 hours
"CCCC(CCC)C(=O)O [valproic acid, 2-propylpentanoic acid]",elimination / plasma / pharmacokinetic half-life,[1]; human,9 to 16 h
